Where two headings read alike, the source gives them in different places.
Assays:
mice = system: mice; parameters: method as in Poul et al. [2009]; details: 20, 200 or 1000 mg/kg twice, 24-h interval, oral gavage; ref Poul et al. [2009]; cited from earlier work
MCF-7 cells = test: LDH cytotoxicity test; details: 24 h, up to 10^−4 M
Procedure: Cytotoxicity was assessed by lactate dehydrogenase (LDH) release. For LDH measurement, Pierce LDH Cytotoxicity Assay Kit (Thermo Scientific, Rockford, USA) was used. MCF-7 cells were seeded at 2.8×10^5 in a transparent 96-well plate, and corner cells of the plate were filled with PBS to prevent the edge effect. SF medium containing DMEM without phenol red, 1% charcoal-stripped FBS, and 4 mM L-glutamine were used for this assay. Plates were incubated for 24 h, and then the cells were treated with test compounds at concentrations ranging from 10^−14 to 10^−4 M or vehicle for another 24 h. On day 3, culture supernatant was collected in a separate 96-well plate, and the assay was continued according to the manufacturer’s instructions. Final absorbance was measured with the microplate reader at 490 and 680 nm. […] Vehicle control was 0.1% EtOH or DMSO. All the exposures were in triplicate, and the experiment was carried out twice.

human ERα = molecular target: T1, human ERα (Homo sapiens, UniProt P03372); test: Yeast bioluminescent assay, S. cerevisiae BMAEREluc/ERα (ERE-luc reporter); format: cell-based; details: S. cerevisiae BMAEREluc/ERα, about 2.5 h incubation, 5% EtOH vehicle; read-out: EC50 (estrogenic potency, luminescence)
T1 construct: expressed in transfected cells; host or cells: Saccharomyces cerevisiae BMAEREluc/ERα (recombinant yeast, gift of Dr. Johanna Rajasärkkä, University of Helsinki)
T1 sequence (P03372 1-595): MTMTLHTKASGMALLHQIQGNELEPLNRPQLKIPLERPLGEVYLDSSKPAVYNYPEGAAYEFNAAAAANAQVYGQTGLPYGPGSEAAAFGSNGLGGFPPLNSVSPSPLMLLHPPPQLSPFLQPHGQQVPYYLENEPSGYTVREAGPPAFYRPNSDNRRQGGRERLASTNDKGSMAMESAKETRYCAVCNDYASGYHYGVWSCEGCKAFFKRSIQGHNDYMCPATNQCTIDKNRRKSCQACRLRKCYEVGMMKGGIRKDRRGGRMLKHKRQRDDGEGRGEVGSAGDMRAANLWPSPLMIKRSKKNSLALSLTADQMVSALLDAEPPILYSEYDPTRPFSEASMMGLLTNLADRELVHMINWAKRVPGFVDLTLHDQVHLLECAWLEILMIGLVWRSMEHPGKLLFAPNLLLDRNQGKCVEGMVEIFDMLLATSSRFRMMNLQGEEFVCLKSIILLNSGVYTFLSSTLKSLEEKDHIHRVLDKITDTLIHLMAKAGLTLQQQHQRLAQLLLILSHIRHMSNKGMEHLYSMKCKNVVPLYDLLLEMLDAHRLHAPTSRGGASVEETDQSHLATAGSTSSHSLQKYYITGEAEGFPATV
Procedure: Yeast bioluminescent assay was performed as previously described (Omoruyi and Pohjanvirta [2018]). Two recombinant yeasts, Saccharomyces cerevisiae BMAEREluc/ERα and Saccharomyces cerevisiae BMA64/luc, were kindly provided by Dr. Johanna Rajasärkkä, Department of Food and Environmental Sciences, Faculty of Agriculture and Forestry, University of Helsinki. In the BMAEREluc/ERα, human ERα is expressed. After estrogen-like chemicals bind to ERα, the dimerized receptor binds to a specific DNA sequence called estrogen response element (ERE), in the promotor region of the luc reporter gene, inducing its expression. In BMA64/luc, the luciferase is expressed constitutively, and this strain can be used for the evaluation of cytotoxicity of test compounds. […]
Next, 90 μL of cultured yeasts containing 1:20 luciferin solution (0.042 g luciferin dissolved in 9.75 mL of 0.2 M trisodium citrate, and 5.525 mL of 0.2 M citrate, pH 5) was pipetted into every well of a white 96-well flat-bottom plate, and 10 μL of test compounds in a defined concentration range (diluted in 5% EtOH) were added. […] The luminescence measurement was performed with Luminoskan Ascent microplate luminometer (Thermo Labsystems) using the recommended settings as follows: 1000 ms integration time, single measurement mode, shaking at 60 rpm for 5 s prior to measurement. […]

estrogen receptor = molecular target: estrogen receptor; parameters: method as in Axon et al. [2012]; details: reporter gene construct in human ERα-positive MCF-7 cells; ref Axon et al. [2012]; read-out: EC50 concentration for estrogen receptor activation; cited from earlier work
human lymphocytes = details: MTT, cited from earlier work
S. cerevisiae BMA64/luc = details: values higher than 2 are considered toxic
Procedure: Yeast bioluminescent assay was performed as previously described (Omoruyi and Pohjanvirta [2018]). Two recombinant yeasts, Saccharomyces cerevisiae BMAEREluc/ERα and Saccharomyces cerevisiae BMA64/luc, were kindly provided by Dr. Johanna Rajasärkkä, Department of Food and Environmental Sciences, Faculty of Agriculture and Forestry, University of Helsinki. In the BMAEREluc/ERα, human ERα is expressed. After estrogen-like chemicals bind to ERα, the dimerized receptor binds to a specific DNA sequence called estrogen response element (ERE), in the promotor region of the luc reporter gene, inducing its expression. In BMA64/luc, the luciferase is expressed constitutively, and this strain can be used for the evaluation of cytotoxicity of test compounds.
Both strains were revived from glycerol stock solution on agar and broth forms of synthetic complete medium supplemented with the required amino acids. After the absence of contamination was confirmed by observing single colonies’ morphology on agar plate, approximately 10 μL of cultured yeasts in broth was transferred to 4 mL of synthetic defined (SD) medium supplemented with the required amino acids. The culture was incubated at 30°C on a shaker incubator (200 rpm). After 24-h incubation, the culture was diluted with SD broth to reach the optimal density (OD600) of 0.4 CFU/mL. Subsequently, the culture was incubated in the same incubation condition until the OD600 reached 0.6–0.7 CFU/mL.
Next, 90 μL of cultured yeasts containing 1:20 luciferin solution (0.042 g luciferin dissolved in 9.75 mL of 0.2 M trisodium citrate, and 5.525 mL of 0.2 M citrate, pH 5) was pipetted into every well of a white 96-well flat-bottom plate, and 10 μL of test compounds in a defined concentration range (diluted in 5% EtOH) were added. The plate was incubated at 30°C for approximately 2.5 h, and was then shaken briefly. The luminescence measurement was performed with Luminoskan Ascent microplate luminometer (Thermo Labsystems) using the recommended settings as follows: 1000 ms integration time, single measurement mode, shaking at 60 rpm for 5 s prior to measurement.
Each concentration of test compounds and controls in the assay was tested in triplicate, and the experiment was performed twice.
* The Correction Factor is the luminescence of the strain BMA64/luc with blank solvent divided by the luminescence of the control strain with the sample. Values higher than 2 are considered toxic (Leskinen et al. 2005).
* The Correction Factor is the luminescence of the strain BMA64/luc with blank solvent divided by the luminescence of the control strain with the sample. Values higher than 2 are considered toxic (Leskinen et al. 2005). […] Each experiment was performed in triplicate.

[1] = Estimated human serum concentration from dietary exposure; details: 7.3 mg/kg body weight/day as bolus, 2% absorbed, even distribution, maximum reduced by 50%
Procedure: Tartrazine has been classified as a xenoestrogen that can bind to ERα in the MCF-7 cell line (Axon et al. [2012]). […] This raises the question whether tartrazine could create any estrogenic effect in humans at its prevailing serum concentrations. Based on the data published by EFSA, the 95th or 97.5th percentile exposure levels for human is 7.3 mg/kg body weight/day (EFSA [2009]).

SMILES: O=C([O-])C1=NN(c2ccc(S(=O)(=O)[O-])cc2)C(=O)C1N=Nc1ccc(S(=O)(=O)[O-])cc1.[Na+].[Na+].[Na+] (stereo not shown) [tartrazine]
- mutagenic or cytotoxic effects in mice (mice): did not elicit mutagenic or cytotoxic effects
- maximum level of cytotoxicity (LDH release) (MCF-7 cells): less than 2.5%
- EC50 (human ERα): 0.1 nM
- EC50 (estrogen receptor): 160 nM
- cytotoxicity to human lymphocytes (human lymphocytes; 0.25–64 mM, ref Soares et al. [2015]): not cytotoxic
- cytotoxicity to human lymphocytes (human lymphocytes; 4 and 8 mM, ref Mpountoukas et al. [2010]): cytotoxic
- Correction Factor (S. cerevisiae BMA64/luc; 5% DMSO, 10^−4 M): 3.05±0.70
- Correction Factor (S. cerevisiae BMA64/luc; 5% DMSO, 10^−6 M): 2.77±0.44
- Correction Factor (S. cerevisiae BMA64/luc; 5% DMSO, 10^−8 M): 2.05±0.32
- Correction Factor (S. cerevisiae BMA64/luc; 5% DMSO, 10^−10 M): 2.60±0.54
- Correction Factor (S. cerevisiae BMA64/luc; 5% DMSO, 10^−12 M): 3.09±0.57
- Correction Factor (S. cerevisiae BMA64/luc; 5% DMSO, 10^−14 M): 3.43±0.66
- Correction Factor (S. cerevisiae BMA64/luc; 5% ethanol, 10^−4 M): 0.99±0.08
- Correction Factor (S. cerevisiae BMA64/luc; 5% ethanol, 10^−6 M): 0.94±0.12
- Correction Factor (S. cerevisiae BMA64/luc; 5% ethanol, 10^−8 M): 0.95±0.09
- Correction Factor (S. cerevisiae BMA64/luc; 5% ethanol, 10^−10 M): 1.36±0.30
- Correction Factor (S. cerevisiae BMA64/luc; 5% ethanol, 10^−12 M): 1.10±0.26
- Correction Factor (S. cerevisiae BMA64/luc; 5% ethanol, 10^−14 M): 1.14±0.23
- estimated serum concentration [1]: 137 nM
